Where “and” joins values, the source holds several entries; their conditions need not be identical. Equal entries are not always repeated.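 Test compounds were applied to cells in 96-well plates for 48 hours at 5 doses. GI50: concentration for 50% inhibition of growth. TGI marks complete inhibition of growth.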

From PubChem BioAssay (NCI) come the findings set out here.

Some test systems named below: TK-10 renal; SW-620 colon; CCRF-CEM leukemia; OVCAR-5 ovarian; RXF 393 renal; OVCAR-3 ovarian; K-562 leukemia; HL-60(TB) leukemia; A498 renal; SK-MEL-28 melanoma.
Holding throughout (experiment): inhibition of tumour cell growth, NCI panel, 48 h

Take `CN(Cc1cnc2nc(N)nc(N)c2n1)c1c(Cl)cc(C(=O)NC(CCC(=O)O)C(=O)O)cc1Br` (stereo unspecified): the GI50 with TK-10 renal is under 0.01 µM; with SW-620 colon it was under 0.01 µM; in the test with CCRF-CEM leukemia, under 0.01 µM; in the test on OVCAR-5 ovarian, 0.127 µM; in the test with RXF 393 renal, 0.345 µM; in the test on OVCAR-3 ovarian it was under 0.01 µM. Also, the GI50 with K-562 leukemia is under 0.01 µM; in the test on HL-60(TB) leukemia, under 0.01 µM; with A498 renal, 0.0302 µM; with SK-MEL-28 melanoma it was over 23.8 µM. Moreover, the TGI in the test with TK-10 renal, in the test with SW-620 colon, with CCRF-CEM leukemia, with OVCAR-5 ovarian, in the test on RXF 393 renal and in the test on OVCAR-3 ovarian was over 100 µM throughout. Moreover, the TGI in the test with K-562 leukemia, in the test with HL-60(TB) leukemia, in the test with A498 renal and in the test with SK-MEL-28 melanoma was over 100 µM throughout.

Take `CC(C)OC(=O)c1cc(NC(=S)OC(C)C)ccc1Cl`: the TGI was 52.4 µM in the test on TK-10 renal; over 64.6 µM with SW-620 colon; over 96.3 µM in the test with CCRF-CEM leukemia; over 63.1 µM in the test with OVCAR-5 ovarian; 62.7 µM in the test with RXF 393 renal; 48.3 µM with OVCAR-3 ovarian. Also, the TGI in the test with K-562 leukemia is over 100 µM; in the test with HL-60(TB) leukemia, over 31.6 µM; in the test with A498 renal, over 51.1 µM; in the test on SK-MEL-28 melanoma it was over 57 µM.

Regarding `c1ccc2[nH]c(-c3cscn3)nc2c1`, the TGI in the test with TK-10 renal, with SW-620 colon, in the test with CCRF-CEM leukemia, in the test on OVCAR-5 ovarian, in the test on RXF 393 renal and in the test with OVCAR-3 ovarian was over 100 µM throughout. The TGI with K-562 leukemia, in the test with HL-60(TB) leukemia, in the test on A498 renal and in the test on SK-MEL-28 melanoma was over 100 µM throughout. The GI50 with RXF 393 renal is > 100 µM and 49.1 µM.

With `CN1CCC(C(=O)Nc2n[nH]c3nnc(-c4ccccc4)cc23)CC1`, the GI50 with TK-10 renal was over 25 µM; with SW-620 colon, over 25 µM; in the test on CCRF-CEM leukemia it was over 25 µM; with OVCAR-5 ovarian, over 25 µM; in the test on RXF 393 renal, 12.3 µM; in the test with OVCAR-3 ovarian, 10.1 µM. Also, the GI50 in the test on K-562 leukemia was over 25 µM; in the test on HL-60(TB) leukemia, over 25 µM; with A498 renal, 5.67 µM; with SK-MEL-28 melanoma it was over 25 µM. Further, the TGI in the test on TK-10 renal, in the test with SW-620 colon, with CCRF-CEM leukemia, in the test with OVCAR-5 ovarian, in the test with RXF 393 renal and in the test with OVCAR-3 ovarian was over 25 µM throughout. The TGI with K-562 leukemia is over 25 µM; in the test with HL-60(TB) leukemia, over 25 µM; in the test on A498 renal, over 21.5 µM; with SK-MEL-28 melanoma, over 25 µM.

As to `CCCCCCCC(=O)OC[n+]1cccc(-c2c(COC(=O)NC(C)C)c(COC(=O)NC(C)C)c3n2CCC3)c1`, the TGI in the test on TK-10 renal is over 100 µM; in the test with SW-620 colon it was over 100 µM; with CCRF-CEM leukemia, over 84 µM; in the test with OVCAR-5 ovarian it was over 100 µM; with RXF 393 renal, 97.2 µM; in the test on OVCAR-3 ovarian, over 100 µM. In addition, the TGI in the test on K-562 leukemia was over 100 µM; in the test with HL-60(TB) leukemia, over 82.1 µM; in the test on A498 renal it was over 89.4 µM; in the test with SK-MEL-28 melanoma it was over 100 µM.

Regarding `O=C(/C=C/c1ccccn1)c1ccccc1`, the GI50 in the test on TK-10 renal was 12.8 µM; in the test with SW-620 colon, 2.02 µM; in the test with CCRF-CEM leukemia, 2.43 µM; in the test on OVCAR-5 ovarian, 6.52 µM; with RXF 393 renal, 3.17 µM; in the test on OVCAR-3 ovarian it was 9.5 µM. Besides, the GI50 in the test with K-562 leukemia is 2.53 µM; in the test on HL-60(TB) leukemia it was 1.88 µM; with A498 renal it was 14.9 µM; in the test on SK-MEL-28 melanoma, 6.09 µM. The TGI in the test on TK-10 renal turned out to be 25.6 µM; in the test with SW-620 colon, 4.1 µM; in the test with CCRF-CEM leukemia, 6.61 µM; in the test on OVCAR-5 ovarian it was 24.1 µM; in the test with RXF 393 renal, 13.1 µM; in the test on OVCAR-3 ovarian it was 21.4 µM. Further, the TGI in the test on K-562 leukemia was over 100 µM; in the test with HL-60(TB) leukemia, 6.75 µM; in the test on A498 renal it was 28.3 µM; with SK-MEL-28 melanoma, 19.2 µM.

Turning to `Cc1c(C(=O)/C=C/c2ccc3c(c2)OCO3)[n+](=O)c2ccccc2n1[O-]`, the TGI was 80.6 µM in the test with TK-10 renal; over 100 µM with SW-620 colon; over 100 µM in the test on CCRF-CEM leukemia; 74.3 µM with OVCAR-5 ovarian; 54.1 µM with RXF 393 renal; 83.3 µM in the test on OVCAR-3 ovarian. For the same molecule, the TGI in the test with K-562 leukemia is over 100 µM; with HL-60(TB) leukemia, over 100 µM; in the test with A498 renal it was 64 µM; with SK-MEL-28 melanoma, over 100 µM.

Turning to `COc1ccccc1CNCCCN1C(=O)c2ccc3c4c(ccc(c24)C1=O)C(=O)N(CCCNCCCCN)C3=O`, the GI50 was 0.976 µM in the test with TK-10 renal; 0.161 µM with SW-620 colon; 0.304 µM in the test on CCRF-CEM leukemia; 1.06 µM in the test with OVCAR-5 ovarian; 0.34 µM with RXF 393 renal; 0.304 µM in the test on OVCAR-3 ovarian. Moreover, the GI50 in the test with K-562 leukemia was 0.298 µM; with HL-60(TB) leukemia, 0.229 µM; with A498 renal, 0.972 µM; with SK-MEL-28 melanoma, 0.425 µM. For the same molecule, the TGI worked out at 4.63 µM in the test with TK-10 renal; 0.858 µM in the test with SW-620 colon; 3.28 µM with CCRF-CEM leukemia; 7.97 µM in the test with OVCAR-5 ovarian; 1.41 µM with RXF 393 renal; 0.81 µM with OVCAR-3 ovarian. For the same molecule, the TGI came out at 1.27 µM in the test on K-562 leukemia, 0.527 µM in the test with HL-60(TB) leukemia, 2.55 µM with A498 renal and 1.54 µM in the test on SK-MEL-28 melanoma.

Take `Nc1cccc(C(=O)/C=C/c2ccccc2O)c1`: the TGI was over 100 µM in the test with TK-10 renal; 29.6 µM in the test on SW-620 colon; over 100 µM in the test on CCRF-CEM leukemia; over 100 µM with OVCAR-5 ovarian; over 100 µM with RXF 393 renal; over 100 µM in the test on OVCAR-3 ovarian. The TGI in the test on K-562 leukemia was over 100 µM; in the test with HL-60(TB) leukemia, 46.9 µM; in the test on A498 renal, over 100 µM; with SK-MEL-28 melanoma, over 100 µM.

Turning to `O=C(Cn1ccnc1[N+](=O)[O-])NCc1ccc(F)cc1`, the TGI in the test on TK-10 renal, with SW-620 colon, with CCRF-CEM leukemia, with OVCAR-5 ovarian, in the test with RXF 393 renal and in the test with OVCAR-3 ovarian was over 100 µM each time. The TGI with K-562 leukemia, in the test on HL-60(TB) leukemia, with A498 renal and with SK-MEL-28 melanoma was over 100 µM each time.
